# Results from patent publication US7691848B2, “Pyrrolobenzodiazepine arylcarboxamides and derivatives thereof as follicle-stimulating hormone receptor antagonists” (Wyeth, priority 2005, dated 2010).
# Experiments:
# [1] = biological target: T1, human FSH receptor (Homo sapiens, UniProt P23945); test: Follicle-Stimulating Hormone Receptor-Dependent Cre-Luciferase Reporter Gene Assay (CHO FSH-R 6CRE-Luc cells); type: cell-based; conditions: for IC50: dose-response format, in presence of EC50 of purified human FSH; for inhibition at 30 µM: 2-dose format, concentration in parentheses 30 μM, inhibition of the response to EC50 of FSH
# T1 construct: host or cells: CHO-K1 (CHO FSH-R 6CRE-Luc, 1D7 cells)
# T1 sequence (P23945 18-695): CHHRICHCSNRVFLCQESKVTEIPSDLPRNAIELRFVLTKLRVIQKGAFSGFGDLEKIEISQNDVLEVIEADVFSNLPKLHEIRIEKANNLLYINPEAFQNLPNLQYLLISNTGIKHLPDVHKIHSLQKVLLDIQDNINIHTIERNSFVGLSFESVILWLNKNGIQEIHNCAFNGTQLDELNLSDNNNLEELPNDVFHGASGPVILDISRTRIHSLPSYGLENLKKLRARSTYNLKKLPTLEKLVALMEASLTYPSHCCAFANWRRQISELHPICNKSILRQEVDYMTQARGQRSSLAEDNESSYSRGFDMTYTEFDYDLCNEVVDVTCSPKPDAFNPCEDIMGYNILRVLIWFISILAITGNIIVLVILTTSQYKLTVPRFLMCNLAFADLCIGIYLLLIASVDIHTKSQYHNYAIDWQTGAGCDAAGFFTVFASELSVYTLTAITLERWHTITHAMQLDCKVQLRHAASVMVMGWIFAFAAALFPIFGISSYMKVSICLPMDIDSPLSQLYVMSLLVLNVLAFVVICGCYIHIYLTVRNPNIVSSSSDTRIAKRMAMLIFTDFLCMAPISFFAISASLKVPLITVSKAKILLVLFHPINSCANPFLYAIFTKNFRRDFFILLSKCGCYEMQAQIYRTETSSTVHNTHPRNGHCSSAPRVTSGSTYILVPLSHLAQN
# Source text: Follicle-Stimulating Hormone Receptor-Dependent Cre-Luciferase Reporter Gene Assay for the Identification of Follicle-Stimulating Hormone (FSH) Antagonists
# A Chinese hamster ovarian cell line that stably produces the human FSH receptor and a luciferase reporter gene regulated by cAMP response elements was used to identify and determine the relative potencies of human FSH receptor antagonists. See for example, Kelton, C. A., et al. Mol. Cell. Endocrinol. 89:141-151 (1992), Tilly, J. L., et al. Endocrinology 131:799-806(1992), and George, S. E., et al. J. Biomol. Screening 2:235-240 (1997).
# Compound Vehicle: Stock compounds were solubilized in an appropriate vehicle, e.g., phosphate buffered saline (PBS) or dimethyl sulfoxide (DMSO), at 30 mM. The compounds were subsequently diluted in DMSO to working dilutions of 1 and 20 or 30 mM for 2-dose testing format and 1 μM-10 mM for dose-response format. The DMSO dilutions were diluted 500-fold in sterile growth medium [D-MEM/F-12 (GIBCO/BRL; Grand Island, NY) containing 15 mM HEPES, 2 mM 1-glutamine, pyridoxine hydrochloride, phenol red and 5% FetalClone® II (HyClone Laboratories, Inc; Logan, Utah), 0.2% DMSO, 100 units penicillin G/ml, and 100 μg streptomycin sulfate/ml (GIBCO/BRL)]. The concentration of the vehicle in each of the compound dilutions was the same.
# Positive Controls: Purified human FSH (>98%) was purchased from Cortex Biochem, Inc. (San Leandro, Calif.) and 3-[(2S*,5R*)-5-{[2-(1H-Indol-3-yl)-ethylcarbamoyl]-methyl}-4-oxo-2-(5-phenylethynyl-thiophen-2-yl)-thiazolidin-3-yl]-benzamide (an FSH-R thiazolidinone antagonist) was prepared by processes described by R. A. Scheuerman et al. in U.S. Pat. No. 6,426,357 (Affymax).
# The CHO FSH-R 6CRE-Luc cells (1D7 cells) were obtained from Affymax (Palo Alto, Calif.). These Chinese hamster ovary cells (CHO-K1) were engineered genetically to stably express the recombinant human FSH receptor gene and a luciferase reporter gene under the regulation of 6 copies of a cAMP response element. The cells were plated one day prior to treatment into 96-well white opaque plates at a density of 50,000 cells/100 μl/well in growth medium. On the day of treatment, the growth medium was removed from the wells by aspiration and 50 μl of fresh growth medium was added to each well. The cells were incubated at 37° C. in a humidified incubator with 5% CO2/95% air.
# The treated cells were incubated for 4 hours at 37° C. in a humidified incubator with 5% CO2/95% air. At the end of the incubation period, luciferase activity was measured by chemiluminescence using a commercially available kit (LucScreen, Tropix, Inc., Bedford, Mass.) according to the manufacturer's specifications, except that Buffer 1 and Buffer 2 were mixed together in equal proportion prior to the addition of 100 μl of the combined reagents to each well. Chemiluminescence was detected using a luminometer (EG & G Berthold Microlumat LB 96 P, Wallac, Gaithersburg, Md.) with chemiluminescence measured for 1 sec/well. Background luminescence was measured for each well prior to the addition of the LucScreen reagent.
# In the 96-well 2-dose format, each compound was tested in duplicate at each dose. […] One plate was used to test a maximum of 22 compounds.
# The EC50 of purified human FSH alone was tested in triplicate with each test compound. The doses chosen to test each compound were extrapolated from the initial 2-dose screening process. Along with the test compounds, purified human FSH also was tested in a dose response (0.03, 0.1, 0.3, 1, 3, 10, and 30 ng/ml) for a positive control and quality control. One plate was used for 3 test compounds and the FSH positive control.
# Luciferase activity is expressed as relative light units/sec/well. Luciferase activity in antagonist was compared to the appropriate negative and positive controls. For 2-dose testing, results are reported as luciferase activity and are expressed as percent inhibition of the response obtained from the EC50 of FSH.
SMILES,melting point [°C],IC50 [1] [µM],inhibition at 30 µM [1] [%]
"COc1cc(C(=O)N2Cc3ccc(C(=O)NCCCCc4ccccc4)n3Cc3ccccc32)ccc1-c1ccccc1C [Example 49, 10-[(2-METHOXY-2′-METHYL-1,1′-BIPHENYL-4-YL)CARBONYL]-N-(4-PHENYLBUTYL)-10,11-DIHYDRO-5H-PYRROLO[2,1-C][1,4]BENZODIAZEPINE-3-CARBOXAMIDE]",154 to 159,> 30,–
O=C(NCC(O)c1ccccc1)c1ccc2n1Cc1ccccc1N(C(=O)COc1ccc(Cl)cc1)C2 (centres unmarked) [Example 73],157 to 158,25.1,–
"COc1cc(C(=O)N2Cc3ccc(C(=O)NCc4ccc(OC(F)(F)F)cc4)n3Cc3ccccc32)ccc1-c1ccccc1C [Example 45, 10-[(2-METHOXY-2′-METHYL-1,1′-BIPHENYL-4-YL)CARBONYL]-N-[4-(TRIFLUOROMETHOXY)BENZYL]-10,11-DIHYDRO-5H-PYRROLO[2,1-C][1,4]BENZODIAZEPINE-3-CARBOXAMIDE]",145 to 149,> 30,–
Cc1ccccc1-c1ccc(C(=O)N2Cc3ccc(C(=O)NCc4ccc(OC(F)(F)F)cc4)n3Cc3ccccc32)cc1C [Example 19],147 to 149,–,30
"COc1ccc(CCNC(=O)c2ccc3n2Cc2ccccc2N(C(=O)c2ccc(-c4ccccc4C)c(C)c2)C3)cc1OC [Example 28, N-[2-(3,4-DIMETHOXYPHENYL)ETHYL]-10-[(2,2′-DIMETHYL-1,1′-BIPHENYL-4-YL)CARBONYL]-10,11- DIHYDRO-5H-PYRROLO[2,1-C][1,4]BENZODIAZEPINE-3-CARBOXAMIDE]",130 to 136,> 30,–
"CCOC(=O)c1cccc(NC(=O)c2ccc3n2Cc2ccccc2N(C(=O)COc2ccc(Cl)cc2)C3)c1 [Example 99, ETHYL 3-[({10-[(4-CHLOROPHENOXY)ACETYL]-10,11-DIHYDRO-5H-PYRROLO[2,1-C][1,4]BENZODIAZEPIN-3-YL}CARBONYL)AMINO]BENZOATE]",179 to 180,> 30,–
"COc1cc(C(=O)N2Cc3ccc(C(=O)NCCC(c4ccccc4)c4ccccc4)n3Cc3ccccc32)ccc1-c1ccccc1C [Example 59, N-(3,3-DIPHENYLPROPYL)-10-[(2-METHOXY-2′-METHYL-1,1′-BIPHENYL-4-YL)CARBONYL]-10,11-DIHYDRO-5H-PYRROLO[2,1-C][1,4]BENZODIAZEPINE-3-CARBOXAMIDE]",214,> 30,–
"O=C(Nc1cccc(-c2ccccc2)c1)c1ccc2n1Cc1ccccc1N(C(=O)COc1ccc(Cl)cc1)C2 [Example 100, N-(1,1′-BIPHENYL-3-YL)-10-[(4-CHLOROPHENOXY)ACETYL]-10,11-DIHYDRO-5H-PYRROLO[2,1-C][1,4]BENZODIAZEPINE-3-CARBOXAMIDE]",185 to 189,> 30,–
COc1ccccc1-c1ccc(C(=O)N2Cc3ccc(C(=O)N[C@@H](CO)c4ccccc4)n3Cc3ccccc32)cc1 [Example 4],195 to 196,–,9
COc1cc(C(=O)N2Cc3ccc(C(=O)NCC(O)c4ccccc4)n3Cc3ccccc32)ccc1-c1ccccc1C (centres unmarked) [Example 63],214 to 215,> 30,–
"COC(=O)c1ccc(NC(=O)c2ccc3n2Cc2ccccc2N(C(=O)COc2ccc(Cl)cc2)C3)cc1OC [Example 95, METHYL 4-[({10-[(4-CHLOROPHENOXY)ACETYL]-10,11-DIHYDRO-5H-PYRROLO[2,1-C][1,4]BENZODIAZEPIN-3-YL}CARBONYL)AMINO]-2-METHOXYBENZOATE]",172 to 174,> 30,–
"O=C(NCCc1ccc2c(c1)OCO2)c1ccc2n1Cc1ccccc1N(C(=O)CSc1ccc(Br)cc1)C2 [Example 104, N-[2-(1,3-BENZODIOXOL-5-YL)ETHYL]-10-{[(4-BROMOPHENYL)THIO]ACETYL}-10,11-DIHYDRO-5H-PYRROLO[2,1-C][1,4]BENZODIAZEPINE-3-CARBOXAMIDE]",143,> 30,–
"O=C(NCc1cccc(C(F)(F)F)c1)c1ccc2n1Cc1ccccc1N(C(=O)CSc1ccc(Br)cc1)C2 [Example 85, 10-{[(4-BROMOPHENYL)THIO]ACETYL}-N-[3-(TRIFLUOROMETHYL)BENZYL]-10,11-DIHYDRO-5H-PYRROLO[2,1-C][1,4]BENZODIAZEPINE-3-CARBOXAMIDE]",102,–,24
"COC(=O)c1cc(NC(=O)c2ccc3n2Cc2ccccc2N(C(=O)COc2ccc(Cl)cc2)C3)cc(C(=O)OC)c1 [Example 98, DIMETHYL 5-[({10-[(4-CHLOROPHENOXY)ACETYL]-10,11-DIHYDRO-5H-PYRROLO[2,1-C][1,4]BENZODIAZEPIN-3-YL}CARBONYL)AMINO]ISOPHTHALATE]",213 to 217,> 30,–
"COc1cc(C(=O)N2Cc3ccc(C(=O)NCCc4ccc(Cl)cc4)n3Cc3ccccc32)ccc1-c1ccccc1C [Example 53, N-[2-(4-CHLOROPHENYL)ETHYL]-10-[(2-METHOXY-2′-METHYL-1,1′-BIPHENYL-4-YL)CARBONYL]-10,11-DIHYDRO-5H-PYRROLO[2,1-C][1,4]BENZODIAZEPINE-3-CARBOXAMIDE]",195 to 196,> 30,–
COc1ccccc1-c1ccc(C(=O)N2Cc3ccc(C(=O)N[C@H](CO)c4ccccc4)n3Cc3ccccc32)cc1 [Example 5],196 to 197,–,14
Cc1ccccc1-c1ccc(C(=O)N2Cc3ccc(C(=O)NCCc4cccc(Cl)c4)n3Cc3ccccc32)cc1C [Example 26],174 to 176,–,62
COc1cc(C(=O)N2Cc3ccc(C(=O)NCC(c4ccccc4)c4ccccc4)n3Cc3ccccc32)ccc1-c1ccccc1C [Example 50],129 to 132,> 30,–
"CC(C)(C)c1ccc(NC(=O)c2ccc3n2Cc2ccccc2N(C(=O)COc2ccc(Cl)cc2)C3)cc1 [Example 102, N-(4-TERT-BUTYLPHENYL)-10-[(4-CHLOROPHENOXY)ACETYL]-10,11-DIHYDRO-5H-PYRROLO[2,1-C][1,4]BENZODIAZEPINE-3-CARBOXAMIDE]",111 to 113,> 30,–
